The text below walks through data of US20050112131A1, “Methods of adjuvant photodynamic therapy to enhance radiation sensitization” (priority 2002, published 2005).

The test system of assay [1] is RIF-1 tumors. The experiment in a line: Tumor pO2 by Eppendorf electrode after ALA photodynamic therapy. It is filed as in vivo, mice. The protocol:
To independently confirm the results described above in ALA-PPIX-treated animals, Eppendorf pO2 electrode measurements were performed in the same tumor model. Two sections of animals with tumors were irradiated for 45 minutes. The first group of animals received ALA-injections 3 hours prior to light irradiation at a concentration of 100 mg/kg, and the second group received light alone. The light was at a wavelength of 633 nm, at a fluence of 150 mW/cm^2. Measurements were taken from the tumors immediately after the light was turned off. […] Collected data were pooled from three tracks in each animal with seven control animals (FIG. 7A) and 6 treated animals (FIG. 7B). The median pO2 for the control group was 3.7 mm Hg, while the median for the treated group was 8.7 mm Hg. Clearly, significant increases in tumor oxygenation occurred after treatment.

In assay [2] the test system is RIF-1 tumors. The experiment in a line: Tumor oxygen by EPR oximetry at different irradiances. It is filed as in vivo, mice. The following applies: light 3 hours post-injection. As to the method: Tumor oxygen changes were measured in mice treated either with aminolevulinic acid-induced protoporphyrin IX (ALA-PPIX) or verteporfin. Using electron paramagnetic resonance (EPR) oximetry described in Example 1, two irradiance levels were performed three hours post-injection of verteporfin or ALA-PPIX. Irradiance levels for ALA-PPIX were 30 mW/cm^2 and 150 mW/cm^2, whereas 50 mW/cm^2 and 200 mW/cm^2 were used for verteporfin.
EPR oximetry measured tumor oxygenation in RIF-1 tumor cells and in tumorigenic mice treated with photodynamic therapy, using synthetic lithium phthalocyanine (LiPc) as the oxygen-sensitive EPR material. Small particles between 50 and 200 μm in size were implanted into the animal tumors by 23-gauge needle at a depth of 1-3 mm within the tumor. Injections of LiPc were performed at least 24 hours prior to photodynamic therapy. Mice were placed in an L-band (1.2 GHz) EPR spectrometer with a microwave bridge that was custom-built for small animal experiments involving measurement of tissue pO2. Each mouse was anesthetized and placed in the EPR resonator for continuous measurement of the tumor tissue pO2 in 15-minute intervals. The external loop resonator was positioned over the tumor to record the EPR signal of injected LiPc within the tissue. Line widths of the EPR signal were converted to pO2 using a calibration curve determined for LiPc. The data were fit with a software program to match the Voigt line shape after the line widths were graphed as a function of time before, during, and after treatment.

Consider `NCC(=O)CCC(=O)O` [ALA, 5-aminolevulinic acid], for which, in the assay with RIF-1 tumors [1] (100 mg/kg ALA 3 hours prior to 633 nm light, 150 mW/cm^2 for 45 minutes, light-only control median 3.7), the “median tumor pO2 immediately after light” value turned out to be 8.7 mm Hg. Besides, the “increase in tumor oxygenation” value with RIF-1 tumors [1] (EPR oximetry and Eppendorf electrode, treated vs control) was “more than two-fold increases”. The “tumor pO2 levels during treatment, low irradiance” value in the assay on RIF-1 tumors [2] (50 mW/cm^2 verteporfin, 30 mW/cm^2 ALA-PPIX) is “remained the same”. Further, the “tumor pO2 levels during treatment, high irradiance” value with RIF-1 tumors [2] (200 mW/cm^2 verteporfin, 150 mW/cm^2 ALA-PPIX) is reported as “a measurable drop in oxygen”.
